From the NIST ThermoML archive (doi:10.1021/je400551d)
Values joined by “and” are separate entries in the source; they are usually repeats but may differ in a detail not shown here. Identical values can stand only once.

Conditions: Liquid, Manometric method

OCCO [1,2-ethanediol]
Conditions	vapor or sublimation pressure [kPa]
336.45 K	0.2527
345 K	0.4838
355.15 K	0.9002
369.25 K	1.69
374.45 K	2.13
378.95 K	2.66
384.45 K	3.57
388.1 K	4.4
391.45 K	5.33
394.56 K	6.01
397.25 K	7.14
404.05 K	9.2
408.25 K	11.34

COC(N)=O [carbamic acid, methyl ester]
Conditions	vapor or sublimation pressure [kPa]
341.45 K	1.31
350.9 K	1.91
356.06 K	2.5
360.75 K	3.55
364.43 K	4.19
367 K	4.48
371.7 K	5.42
373.85 K	6.23
377.23 K	7.14
384.9 K	9.83
387.17 K	10.96
390.5 K	12.39
393.75 K	13.99

CCCCCCCCCC [decane]
Conditions	vapor or sublimation pressure [kPa]
299.25 K	0.1732
306.95 K	0.3091
309.15 K	0.4116
316.26 K	0.6545
326.1 K	1.04
340.05 K	1.95
347.9 K	2.97
353.32 K	3.8
358.67 K	4.82
362.85 K	5.92
365.13 K	6.96
370.4 K	8.23
377.13 K	10.48
379.93 K	12
382.83 K	13.25

COC(=O)Nc1ccccc1 [methyl N-phenylcarbamate]
Conditions	vapor or sublimation pressure
372.5 K	0.2093 kPa
374.46 K	0.2248 kPa
376.9 K	0.254 kPa
379.05 K	0.308 kPa
380.65 K	0.3343 kPa
383.31 K	0.3891 kPa
385.85 K	0.4487 kPa
387.85 K	0.4996 kPa
390.35 K	0.5609 kPa
391.76 K	0.5914 kPa
394.05 K	0.651 kPa
395.8 K	0.719 kPa
397.05 K	0.7885 kPa and 0.7897 kPa
399.63 K	0.9364 kPa
399.83 K	0.9418 kPa
402.15 K	1.06 kPa
409.85 K	1.29 kPa
412.9 K	1.54 kPa
415.9 K	1.97 kPa
418.45 K	2.13 kPa

O [water]
Conditions	vapor or sublimation pressure [kPa]
280.2 K	1.29
282.23 K	1.34
287.9 K	1.82
292.36 K	2.13
296.13 K	2.78
300.7 K	3.47
304.8 K	4.54
306.67 K	4.82
309.65 K	5.9
312.07 K	6.75
314.95 K	7.78
316.65 K	8.45
317.9 K	9.45
320.04 K	10.62
322.75 K	11.78
